From ChEMBL document CHEMBL4619719, “A-ring and E-ring modifications of the cytotoxic alkaloid Luotonin A: Synthesis, computational and biological studies” (Bioorg Med Chem, 2020) come the findings set out here.

For experiment [1], the system named is SW480. Description: Induction of cell death in human SW480 cells assessed as accumulation of large cells incubated for 72 hrs by Hoechst […] staining based fluorescence microscopic method. It counts as functional.
In experiment [2] the test system is SW480. Kind of experiment: Induction of cell cycle arrest in human SW480 cells assessed as accumulation of cells at S phase at 20 to 35 nM incubated for 72 hrs by propidium iodide staining based flow cytometric analysis. The experiment is classed as functional. In general terms: Flow cytometry measures light scatter and fluorescence of single cells or particles in a stream.

Experiment [3] relates to SW480. Kind of experiment: Antiproliferative activity against human SW480 cells assessed as reduction in cell viability at 20 uM measured after 72 hours by MTT assay relative to control. The experiment is classed as functional. For orientation: Tetrazolium dyes change colour on reduction, which living cells bring about.
For experiment [4], the target named is T1, DNA topoisomerase 1 (Homo sapiens) (UniProt P11387).
T1 sequence (whole entry): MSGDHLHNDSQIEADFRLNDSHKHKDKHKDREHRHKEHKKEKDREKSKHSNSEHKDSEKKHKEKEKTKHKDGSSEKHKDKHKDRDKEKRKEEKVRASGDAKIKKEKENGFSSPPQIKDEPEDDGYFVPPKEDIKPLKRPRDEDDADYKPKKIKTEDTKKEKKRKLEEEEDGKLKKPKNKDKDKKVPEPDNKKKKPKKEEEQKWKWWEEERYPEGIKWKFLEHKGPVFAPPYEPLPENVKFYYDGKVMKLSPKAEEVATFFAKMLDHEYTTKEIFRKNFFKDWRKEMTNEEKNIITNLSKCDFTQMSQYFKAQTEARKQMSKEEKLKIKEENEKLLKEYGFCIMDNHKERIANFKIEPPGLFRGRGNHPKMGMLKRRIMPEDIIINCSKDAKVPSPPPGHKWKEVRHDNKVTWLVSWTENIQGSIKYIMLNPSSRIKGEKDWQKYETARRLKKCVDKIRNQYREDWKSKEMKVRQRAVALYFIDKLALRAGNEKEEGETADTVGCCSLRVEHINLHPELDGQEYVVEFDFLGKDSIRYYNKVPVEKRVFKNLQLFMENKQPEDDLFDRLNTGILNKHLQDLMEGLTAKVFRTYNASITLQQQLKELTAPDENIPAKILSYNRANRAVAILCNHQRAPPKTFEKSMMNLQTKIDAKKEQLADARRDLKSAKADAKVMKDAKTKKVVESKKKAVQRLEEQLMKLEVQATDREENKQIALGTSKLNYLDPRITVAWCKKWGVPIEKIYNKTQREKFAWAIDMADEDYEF
Description: Inhibition of human TOP1 assessed as decrease in relaxation of supercoiled DNA using supercoiled plasmid DNA pGEM1 as substrate at 1 uM preincubated for 30 mins by SDS gel electrophoresis method. On the set-up: scale not given: the % may be the effect or the level left.

Experiment [5] has as its system HL-60. Description: Induction of cell cycle arrest in human HL60 cells assessed as accumulation of cells at G2 phase incubated for 24 hrs by propidium iodide staining based flow cytometric analysis. It counts as functional.
Experiment [6] has as its system HL-60. Description: Antiproliferation activity against human HL60 cells assessed as reduction in cell viability measured after 72 hrs by MTT assay. To be noted: HL-60, 72 h. The experiment is classed as functional, cell-based.
For experiment [7], the system named is SW480. Kind of experiment: Induction of cell death in human SW480 cells assessed as accumulation of large nuclei incubated for 72 hrs by Hoechst […] staining based fluorescence microscopic method. It counts as functional.
Experiment [8] relates to SW480. Description: Antiproliferation activity against human SW480 cells assessed as reduction in cell viability measured after 72 hours by MTT assay. The experiment is classed as functional, cell-based. To be noted: SW480, 72 h.
Experiment [9] concerns the target T1, DNA topoisomerase 1 (Homo sapiens). Description: Inhibition of human TOP1 assessed as decrease in relaxation of supercoiled DNA using supercoiled plasmid DNA pGEM1 as substrate at 100 uM preincubated for 30 mins by SDS gel electrophoresis method. Set-up: scale not given: the % may be the effect or the level left.
Experiment [10] concerns HL-60. Kind of experiment: Induction of cell cycle arrest in human HL60 cells assessed as accumulation of cells at G2 phase at 20 to 35 nM incubated for 24 hrs by propidium iodide staining based flow cytometric analysis. It counts as functional.
Experiment [11] deals with HL-60. Description: Induction of cell cycle arrest in human HL60 cells assessed as accumulation of cells at S phase at 20 to 35 nM incubated for 24 hrs by propidium iodide staining based flow cytometric analysis. It counts as functional.
For experiment [12], the system named is HL-60. Kind of experiment: Antiproliferative activity against human HL60 cells assessed as reduction in cell viability at 20 uM measured after 72 hrs by MTT assay relative to control. It counts as functional.
In experiment [13] the target is T1, DNA topoisomerase 1 (Homo sapiens). Kind of experiment: Inhibition of human TOP1 assessed as decrease in relaxation of supercoiled DNA using supercoiled plasmid DNA pGEM1 as substrate at 10 uM preincubated for 30 mins by SDS gel electrophoresis method. On the set-up: scale not given: the % may be the effect or the level left.
Experiment [14] deals with HL-60. Description: Induction of apoptosis in human HL60 cels assessed as activation of caspases preincubated for 24 hrs followed by addition of fluorescent pan-caspase substrate incubated for 90 mins by fluorescence based assay. It counts as functional, cell-based.
In experiment [15] the test system is HL-60. Kind of experiment: Induction of cell cycle arrest in human HL60 cells assessed as accumulation in G2/M phase at 2 to 4 uM 24 hrs by propidium iodide staining based flow cytometric analysis. The experiment is classed as functional.
Experiment [16] has as its system SW480. Description: Induction of apoptosis in human SW480 cells assessed as activation of caspases preincubated for 72 hrs followed by addition of fluorescent pan-caspase substrate incubated for 90 mins by fluorescence based assay. The experiment is classed as functional, cell-based.
The test system of experiment [17] is SW480. Description: Induction of cell death in human SW480 cells assessed as accumulation of large cells at 2 uM incubated for 72 hrs by Hoechst […] staining based fluorescence microscopic method. The experiment is classed as functional.
The subject of experiment [18] is SW480. Description: Induction of cell cycle arrest in human SW480 cells assessed as accumulation in G2/M phase at 2 to 4 uM for 72 hrs by propidium iodide staining based flow cytometric analysis. The experiment is classed as functional.
The test system of experiment [19] is SW480. Description: Induction of cell death in human SW480 cells assessed as accumulation of large nuclei at 2 uM incubated for 72 hrs by Hoechst […] staining based fluorescence microscopic method. The experiment is classed as functional.
Experiment [20] has as its system SW480. Description: Induction of cell cycle arrest in human SW480 cells assessed as S phase cell cycle arrest at 2 to 4 uM incubated for 72 hrs by propidium iodide staining based flow cytometric analysis. It counts as functional.

The source made the active and inactive calls. The calls are words filed in the database; no cut-off is given here.

For the compound `CC[C@@]1(O)C(=O)OCc2c1cc1n(c2=O)Cc2cc3ccccc3nc2-1` [CAMPTOTHECIN], the outcome in the experiment with SW480 [1], in the experiment with SW480 [7] and with HL-60 [10] was inactive. The outcome in the experiment with SW480 [2] and in the experiment with HL-60 [11] was Active. Moreover, the “fold change (FC)” value with SW480 [3] is recorded as 0.3; in the experiment on HL-60 [12], 0. The Activity in experiment [4] is 2.1%; in the experiment on HL-60 [5], “Dose-dependent effect”; in experiment [9], 26.3%; in experiment [13], 6%. Further, the IC50 amounted to 18 nM in the experiment on HL-60 [6] and 210 nM with SW480 [8].
Consider `Nc1ccc2nc3c(cc2c1)Cn1c-3nc2ccccc2c1=O`, for which the “fold change (FC)” value in the experiment on SW480 [3] was found to be 0.24; in the experiment with HL-60 [12], 0.26.
In the same order, the values of `O=c1c2ccccc2nc2n1Cc1cc3cccc(F)c3nc1-2` are 0.88 and 0.61.
In the same order, the values of `COc1ccc2nc3c(cc2c1)Cn1c-3nc2ccc(Br)cc2c1=O` are “inactive” and 0.82.
In the same order, the values of `COc1cc(OC)c2cc3c(nc2c1)-c1nc2ccc(N)cc2c(=O)n1C3` are 0.98 and 0.73.
As for `COc1cc(OC)c2cc3c(nc2c1)-c1nc2ccc(I)cc2c(=O)n1C3`, the “fold change (FC)” value in the experiment on SW480 [3] is on record as 0.99; in the experiment with HL-60 [12], 0.83.
`O=c1c2ccccc2nc2n1Cc1cc3ccccc3nc1-2` [LUOTONIN A]: the results for the “fold change (FC)” value in the experiment on SW480 [3] and in the experiment with HL-60 [12] were 0.91 and 0.83, respectively. The Activity was found to be 2.1% in experiment [4], 16.3% in experiment [9] and 2.6% in experiment [13].
Take `COc1cc(OC)c2cc3c(nc2c1)-c1nc2ccc(Br)cc2c(=O)n1C3`: the “fold change (FC)” value in the experiment with SW480 [3] was 0.89. Besides, the “fold change (FC)” value with HL-60 [12] was “inactive”.
Regarding `Nc1ccc2nc3n(c(=O)c2c1)Cc1cc2cccc(N)c2nc1-3`, the result with HL-60 [14], with HL-60 [15], in the experiment with SW480 [17], in the experiment with SW480 [18] and in the experiment on SW480 [19] was Active. Moreover, the “fold change (FC)” value with SW480 [3] worked out at 0.31; in the experiment with HL-60 [12], 0.01. Further, the Activity was 2.6% in experiment [4], 12.6 to 13% in experiment [9] and 9 to 9.2% in experiment [13]. Further, the results for the half-maximal inhibitory concentration (IC50) with HL-60 [6] and in the experiment with SW480 [8] were 820 nM and 2030 nM, respectively. Moreover, the outcome with SW480 [16] and with SW480 [20] was inactive.
For the compound `Nc1cccc2cc3c(nc12)-c1nc2ccccc2c(=O)n1C3`, the figures for the “fold change (FC)” value with SW480 [3] and in the experiment with HL-60 [12] were 0.58 and 0.02, respectively.

By IC50 is commonly meant the concentration at which inhibition is half-maximal.
